In PubChem BioAssay AID2060884 (Molecular Pharmacology Branch, DTP, NCI, 2025):

Test system: NCI-H929 complex spheroids, viability % test/control
Experiment: Anticancer human tumor NCI-H929 cell line growth inhibition [RAS];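 note: compound exposure lasted seven days before viability was read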;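 for viability, T/C: 100% = DMSO vehicle control viability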
Conditions: for IC50: curve of first compound; for viability, T/C: stronger effect = lower value
In short: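 Agents were tested in combination matrices in half-log decrements from a top concentration at or near clinical Cmax (10 microM if undetermined). Targets were multi-cell spheroids of tumour lines plus HUVEC and MSC stromal cells.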

Q: How did the IC50 (second compound 0.00316 µM) turn out when `CCC(CC)c1cc(NC2CCC(N)C2)n2nccc2n1` (centres undefined) + C=CC(=O)N1CCN(c2nc(OCC3CCCN3C)nc3c(F)c(-c4nc(N)cc(C)c4C(F)(F)F)c(Cl)cc23)C(C)C1 was run?
A: The IC50 was 1.72 µM.

Q: What about the IC50 (second compound 0.01 µM) of the same molecule?
A: Its IC50 is 1.77 µM.

Q: What about the IC50 (second compound 0.0316 µM) of the same molecule?
A: Its IC50 is 1.75 µM.

Q: What about the IC50 (second compound 0.1 µM) of the same molecule?
A: Its IC50 is 1.76 µM.

Q: And the IC50 (second compound 0.316 µM)?
A: The IC50 was 1.77 µM.

Q: What about the IC50 (second compound 1 µM) of the same molecule?
A: Its IC50 is 1.78 µM.

Q: And the viability, T/C (second compound 0.00316 µM, first compound 0.0316 µM)?
A: Its viability, T/C is 100%.

Q: And the viability, T/C (second compound 0.00316 µM, first compound 0.1 µM)?
A: Its viability, T/C is 91.7%.

Q: What about the viability, T/C (second compound 0.00316 µM, first compound 0.316 µM) of the same molecule?
A: Its viability, T/C is 93.5%.

Q: And the viability, T/C (second compound 0.00316 µM, first compound 1 µM)?
A: Its viability, T/C is 93.2%.

Q: What about the viability, T/C (second compound 0.00316 µM, first compound 3.16 µM) of the same molecule?
A: Its viability, T/C is 1.09%.

Q: What about the viability, T/C (second compound 0.00316 µM, first compound 10 µM) of the same molecule?
A: Its viability, T/C is 0.82%.

Q: What about the viability, T/C (second compound 0.01 µM, first compound 0.0316 µM) of the same molecule?
A: Its viability, T/C is 96.3%.

Q: And the viability, T/C (second compound 0.01 µM, first compound 0.1 µM)?
A: Its viability, T/C is 98.3%.

Q: What about the viability, T/C (second compound 0.01 µM, first compound 0.316 µM) of the same molecule?
A: Its viability, T/C is 97.9%.

Q: What about the viability, T/C (second compound 0.01 µM, first compound 1 µM) of the same molecule?
A: Its viability, T/C is 97.9%.

Q: And the viability, T/C (second compound 0.01 µM, first compound 3.16 µM)?
A: Its viability, T/C is 1.58%.

Q: And the viability, T/C (second compound 0.01 µM, first compound 10 µM)?
A: Its viability, T/C is 0.56%.

Q: What about the viability, T/C (second compound 0.0316 µM, first compound 0.0316 µM) of the same molecule?
A: Its viability, T/C is 93.3%.

Q: And the viability, T/C (second compound 0.0316 µM, first compound 0.1 µM)?
A: Its viability, T/C is 95.7%.

Q: And the viability, T/C (second compound 0.0316 µM, first compound 0.316 µM)?
A: The viability, T/C was 97.3%.

Q: What about the viability, T/C (second compound 0.0316 µM, first compound 1 µM) of the same molecule?
A: The viability, T/C was 100%.

Q: And the viability, T/C (second compound 0.0316 µM, first compound 3.16 µM)?
A: Its viability, T/C is 1.12%.

Q: What about the viability, T/C (second compound 0.0316 µM, first compound 10 µM) of the same molecule?
A: Its viability, T/C is 0.24%.

Q: And the viability, T/C (second compound 0.1 µM, first compound 0.0316 µM)?
A: The viability, T/C was 95.9%.

Q: And the viability, T/C (second compound 0.1 µM, first compound 0.1 µM)?
A: The viability, T/C was 96.1%.

Q: What about the viability, T/C (second compound 0.1 µM, first compound 0.316 µM) of the same molecule?
A: Its viability, T/C is 99.4%.

Q: What about the viability, T/C (second compound 0.1 µM, first compound 1 µM) of the same molecule?
A: Its viability, T/C is 99.6%.

Q: And the viability, T/C (second compound 0.1 µM, first compound 3.16 µM)?
A: The viability, T/C was 0.2%.

Q: And the viability, T/C (second compound 0.1 µM, first compound 10 µM)?
A: The viability, T/C was 0.59%.

Q: What about the viability, T/C (second compound 0.316 µM, first compound 0.0316 µM) of the same molecule?
A: Its viability, T/C is 98.5%.

Q: What about the viability, T/C (second compound 0.316 µM, first compound 0.1 µM) of the same molecule?
A: Its viability, T/C is 99.4%.

Q: What about the viability, T/C (second compound 0.316 µM, first compound 0.316 µM) of the same molecule?
A: Its viability, T/C is 94.7%.

Q: And the viability, T/C (second compound 0.316 µM, first compound 1 µM)?
A: The viability, T/C was 101%.

Q: And the viability, T/C (second compound 0.316 µM, first compound 3.16 µM)?
A: Its viability, T/C is 1%.

Q: And the viability, T/C (second compound 0.316 µM, first compound 10 µM)?
A: The viability, T/C was 0.48%.

Q: And the viability, T/C (second compound 1 µM, first compound 0.0316 µM)?
A: The viability, T/C was 106%.

Q: And the viability, T/C (second compound 1 µM, first compound 0.1 µM)?
A: The viability, T/C was 104%.

Q: And the viability, T/C (second compound 1 µM, first compound 0.316 µM)?
A: The viability, T/C was 97%.

Q: What about the viability, T/C (second compound 1 µM, first compound 1 µM) of the same molecule?
A: The viability, T/C was 99.2%.

Q: And the viability, T/C (second compound 1 µM, first compound 3.16 µM)?
A: Its viability, T/C is 0.64%.

Q: And the viability, T/C (second compound 1 µM, first compound 10 µM)?
A: Its viability, T/C is 0.11%.

Q: For `C=CC(=O)N1CCN(c2nc(OCC3CCCN3C)nc3c(F)c(-c4nc(N)cc(C)c4C(F)(F)F)c(Cl)cc23)C(C)C1` (centres undefined) + CCn1c(-c2cc(N3CCN(C)CC3)cnc2C(C)OC)c2c3cc(ccc31)-c1csc(n1)CC(NC(=O)C1CC1C)C(=O)N1CCCC(N1)C(=O)OCC(C)(C)C2, which IC50 (second compound 0.000949 µM) is on record?
A: Its IC50 is over 1 µM.

Q: What about the IC50 (second compound 0.003 µM) of the same molecule?
A: Its IC50 is over 1 µM.

Q: What about the IC50 (second compound 0.00949 µM) of the same molecule?
A: The IC50 was over 1 µM.

Q: And the IC50 (second compound 0.03 µM)?
A: Its IC50 is over 1 µM.

Q: And the IC50 (second compound 0.0949 µM)?
A: The IC50 was under 0.00316 µM.

Q: And the IC50 (second compound 0.3 µM)?
A: The IC50 was under 0.00316 µM.

Q: And the viability, T/C (second compound 0.000949 µM, first compound 0.00316 µM)?
A: The viability, T/C was 98.6%.

Q: What about the viability, T/C (second compound 0.000949 µM, first compound 0.01 µM) of the same molecule?
A: The viability, T/C was 92.4%.

Q: What about the viability, T/C (second compound 0.000949 µM, first compound 0.0316 µM) of the same molecule?
A: Its viability, T/C is 102%.

Q: And the viability, T/C (second compound 0.000949 µM, first compound 0.1 µM)?
A: The viability, T/C was 96.4%.

Q: And the viability, T/C (second compound 0.000949 µM, first compound 0.316 µM)?
A: Its viability, T/C is 101%.

Q: What about the viability, T/C (second compound 0.000949 µM, first compound 1 µM) of the same molecule?
A: The viability, T/C was 107%.

Q: What about the viability, T/C (second compound 0.003 µM, first compound 0.00316 µM) of the same molecule?
A: Its viability, T/C is 89.5%.

Q: And the viability, T/C (second compound 0.003 µM, first compound 0.01 µM)?
A: The viability, T/C was 97.1%.

Q: What about the viability, T/C (second compound 0.003 µM, first compound 0.0316 µM) of the same molecule?
A: Its viability, T/C is 97.5%.

Q: What about the viability, T/C (second compound 0.003 µM, first compound 0.1 µM) of the same molecule?
A: The viability, T/C was 96.6%.

Q: What about the viability, T/C (second compound 0.003 µM, first compound 0.316 µM) of the same molecule?
A: Its viability, T/C is 101%.

Q: And the viability, T/C (second compound 0.003 µM, first compound 1 µM)?
A: The viability, T/C was 97.2%.

Q: And the viability, T/C (second compound 0.00949 µM, first compound 0.00316 µM)?
A: The viability, T/C was 109%.

Q: What about the viability, T/C (second compound 0.00949 µM, first compound 0.01 µM) of the same molecule?
A: Its viability, T/C is 115%.

Q: And the viability, T/C (second compound 0.00949 µM, first compound 0.0316 µM)?
A: The viability, T/C was 116%.

Q: And the viability, T/C (second compound 0.00949 µM, first compound 0.1 µM)?
A: The viability, T/C was 114%.

Q: What about the viability, T/C (second compound 0.00949 µM, first compound 0.316 µM) of the same molecule?
A: Its viability, T/C is 114%.

Q: What about the viability, T/C (second compound 0.00949 µM, first compound 1 µM) of the same molecule?
A: The viability, T/C was 116%.

Q: And the viability, T/C (second compound 0.03 µM, first compound 0.00316 µM)?
A: Its viability, T/C is 69.4%.

Q: And the viability, T/C (second compound 0.03 µM, first compound 0.01 µM)?
A: The viability, T/C was 70.8%.

Q: And the viability, T/C (second compound 0.03 µM, first compound 0.0316 µM)?
A: Its viability, T/C is 78.2%.

Q: What about the viability, T/C (second compound 0.03 µM, first compound 0.1 µM) of the same molecule?
A: The viability, T/C was 91%.

Q: And the viability, T/C (second compound 0.03 µM, first compound 0.316 µM)?
A: Its viability, T/C is 89.7%.

Q: What about the viability, T/C (second compound 0.03 µM, first compound 1 µM) of the same molecule?
A: The viability, T/C was 65.1%.

Q: What about the viability, T/C (second compound 0.0949 µM, first compound 0.00316 µM) of the same molecule?
A: The viability, T/C was 8.79%.

Q: And the viability, T/C (second compound 0.0949 µM, first compound 0.01 µM)?
A: Its viability, T/C is 7.92%.

Q: What about the viability, T/C (second compound 0.0949 µM, first compound 0.0316 µM) of the same molecule?
A: Its viability, T/C is 7.39%.

Q: What about the viability, T/C (second compound 0.0949 µM, first compound 0.1 µM) of the same molecule?
A: The viability, T/C was 10.4%.

Q: What about the viability, T/C (second compound 0.0949 µM, first compound 0.316 µM) of the same molecule?
A: Its viability, T/C is 12.4%.

Q: What about the viability, T/C (second compound 0.0949 µM, first compound 1 µM) of the same molecule?
A: The viability, T/C was 8.5%.

Q: And the viability, T/C (second compound 0.3 µM, first compound 0.00316 µM)?
A: The viability, T/C was 4.59%.

Q: And the viability, T/C (second compound 0.3 µM, first compound 0.01 µM)?
A: Its viability, T/C is 4.22%.

Q: And the viability, T/C (second compound 0.3 µM, first compound 0.0316 µM)?
A: Its viability, T/C is 3.75%.

Q: And the viability, T/C (second compound 0.3 µM, first compound 0.1 µM)?
A: The viability, T/C was 4.24%.

Q: And the viability, T/C (second compound 0.3 µM, first compound 0.316 µM)?
A: The viability, T/C was 4.79%.

Q: What about the viability, T/C (second compound 0.3 µM, first compound 1 µM) of the same molecule?
A: Its viability, T/C is 3.26%.
